Measurements: PMC4129175, “HPLC-Fingerprints and Antioxidant Constituents of Phyla nodiflora” (The Scientific World Journal, 2014)
Where two headings read alike, the source gives them in different places.

How the values were obtained:
[1] = ABTS cation radical (ABTS∙+) decolorization/scavenging assay; conditions: concentration that scavenges 50% radicals; mean ± SD, n = 3
Procedure: The ABTS decolorization assay was performed as described, with slight modification. The ABTS cation radical (ABTS^∙+) was produced by reacting 7 mM stock solution of ABTS with 2.45 mM potassium persulfate (final concentration) and allowing the mixture to stand in the dark for 6–8 h at room temperature before use. The ABTS^∙+ solution was diluted to an absorbance of 0.7 ± 0.02 at 734 nm. Thirty microliters of samples of different concentrations were mixed with 170 μl of ABTS^∙+ working solution under a dark condition and shaken for 15 s. The absorbance was measured at 734 nm after 20 min. The scavenging capacity was calculated using the same formula as for the DPPH radical scavenging assay.

[2] = Superoxide anion radical (O2∙−) scavenging assay (xanthine/xanthine oxidase, NBT); format: biochemical; conditions: concentration that scavenges 50% radicals; mean ± SD, n = 3
Procedure: (§1) The procedures of O2 ^∙− scavenging activity and mushroom tyrosinase inhibitory effect were performed as previous report. In the O2 ^∙− scavenging assay, xanthine (0.1 mM, 15 μl) in 50 mM phosphate buffer (pH 7.4), NBT (25 μM, 16 μl), EDTA (0.1 μM, 14 μl), and 100 μl of various concentrations of test compounds were mixed in the 96-well plates. Reactions were initiated by adding 0.5 U xanthine oxidase. After 30 min, the absorbance of each mixture was measured at 540 nm. In the mushroom tyrosinase inhibitory assay, L-tyrosine (2 mM, 80 μl) in 50 mM phosphate buffer (pH 6.5) and various concentrations of test compounds (100 μl) were added to 96-well plates. After 10 min incubation, 20 U mushroom tyrosinase was added to start the reaction. The absorbance of each mixture was measured at 490 nm after 30 min incubation. The O2 ^∙− scavenging capacity and the percentage inhibition of mushroom tyrosinase were calculated using the same formula as for the DPPH radical scavenging assay.

[3] = DPPH radical (DPPH∙) scavenging assay; conditions: concentration that scavenges 50% radicals; mean ± SD, n = 3
Procedure: In the DPPH radical (DPPH^∙) scavenging assay, fifty microliters of samples of various concentrations were mixed with 150 μl of DPPH^∙ solution (0.1 mM) dissolved in methanol. Each mixture was allowed to stand for 30 min and measured at 517 nm using a multiplate spectrophotometer (μQuant, Bio-Tek, USA). The scavenging ability was calculated using the following formula: (1) Scavenging ability (%) =(1−sample absorbance/control absorbance)×100%.

[4] = set-up: method as in Lan et al. 2013 [15]; conditions: positive control; ref Lan et al. 2013 [15]; cited from earlier work
[5] = set-up: method as in Lan et al. 2013 [15]; conditions: positive control; ref Lan et al. 2013 [15]; cited from earlier work; remark: listed apart in the source
[6] = set-up: method as in Lan et al. 2013 [15]; conditions: positive control; ref Lan et al. 2013 [15]; cited from earlier work; remark: listed apart in the source
mushroom tyrosinase = mushroom tyrosinase (Agaricus bisporus, UniProt C7FF04); test: Lineweaver-Burk kinetic study of tyrosinase inhibition; format: biochemical; conditions: Lineweaver-Burk plot, various concentrations of tyrosine
Chain of mushroom tyrosinase (C7FF04 1-392): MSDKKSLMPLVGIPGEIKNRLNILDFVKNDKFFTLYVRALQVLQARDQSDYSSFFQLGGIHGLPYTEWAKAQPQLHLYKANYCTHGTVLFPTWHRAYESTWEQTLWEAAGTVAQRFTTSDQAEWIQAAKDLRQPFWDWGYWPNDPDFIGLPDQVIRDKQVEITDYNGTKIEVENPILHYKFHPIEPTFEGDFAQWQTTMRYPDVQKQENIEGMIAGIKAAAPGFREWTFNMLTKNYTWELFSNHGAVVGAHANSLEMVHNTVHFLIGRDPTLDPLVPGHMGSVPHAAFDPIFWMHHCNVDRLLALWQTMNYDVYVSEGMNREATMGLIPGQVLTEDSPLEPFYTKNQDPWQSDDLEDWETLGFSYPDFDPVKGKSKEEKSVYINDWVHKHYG
Chain of mushroom tyrosinase (G1K3P4 entry or part of it, further chain): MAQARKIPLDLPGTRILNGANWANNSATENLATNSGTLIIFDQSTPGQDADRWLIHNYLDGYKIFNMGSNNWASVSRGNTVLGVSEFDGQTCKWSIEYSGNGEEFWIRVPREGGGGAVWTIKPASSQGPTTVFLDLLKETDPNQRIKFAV
Procedure: as §1
(§2) This study used Lineweaver-Burk plots to determine the inhibitory mode of test samples [15]. The kinetic study was performed in the presence or absence of test samples with various concentrations of tyrosine or xanthine as the substrate.
Figure 2 Lineweaver-Burk plot of tyrosinase inhibition of (a) onopordin (4) and (b) eupafolin (7) with various concentrations of tyrosine. […]

xanthine oxidase (XO) = target: T1, xanthine oxidase (XO) (Bos taurus, UniProt P80457); test: Lineweaver-Burk kinetic study of xanthine oxidase inhibition; format: biochemical; conditions: for Ki / Vmax (xanthine oxidase): xanthine as substrate
T1 construct: purchased Sigma-Aldrich; host or cells: buttermilk
T1 sequence (P80457 whole entry): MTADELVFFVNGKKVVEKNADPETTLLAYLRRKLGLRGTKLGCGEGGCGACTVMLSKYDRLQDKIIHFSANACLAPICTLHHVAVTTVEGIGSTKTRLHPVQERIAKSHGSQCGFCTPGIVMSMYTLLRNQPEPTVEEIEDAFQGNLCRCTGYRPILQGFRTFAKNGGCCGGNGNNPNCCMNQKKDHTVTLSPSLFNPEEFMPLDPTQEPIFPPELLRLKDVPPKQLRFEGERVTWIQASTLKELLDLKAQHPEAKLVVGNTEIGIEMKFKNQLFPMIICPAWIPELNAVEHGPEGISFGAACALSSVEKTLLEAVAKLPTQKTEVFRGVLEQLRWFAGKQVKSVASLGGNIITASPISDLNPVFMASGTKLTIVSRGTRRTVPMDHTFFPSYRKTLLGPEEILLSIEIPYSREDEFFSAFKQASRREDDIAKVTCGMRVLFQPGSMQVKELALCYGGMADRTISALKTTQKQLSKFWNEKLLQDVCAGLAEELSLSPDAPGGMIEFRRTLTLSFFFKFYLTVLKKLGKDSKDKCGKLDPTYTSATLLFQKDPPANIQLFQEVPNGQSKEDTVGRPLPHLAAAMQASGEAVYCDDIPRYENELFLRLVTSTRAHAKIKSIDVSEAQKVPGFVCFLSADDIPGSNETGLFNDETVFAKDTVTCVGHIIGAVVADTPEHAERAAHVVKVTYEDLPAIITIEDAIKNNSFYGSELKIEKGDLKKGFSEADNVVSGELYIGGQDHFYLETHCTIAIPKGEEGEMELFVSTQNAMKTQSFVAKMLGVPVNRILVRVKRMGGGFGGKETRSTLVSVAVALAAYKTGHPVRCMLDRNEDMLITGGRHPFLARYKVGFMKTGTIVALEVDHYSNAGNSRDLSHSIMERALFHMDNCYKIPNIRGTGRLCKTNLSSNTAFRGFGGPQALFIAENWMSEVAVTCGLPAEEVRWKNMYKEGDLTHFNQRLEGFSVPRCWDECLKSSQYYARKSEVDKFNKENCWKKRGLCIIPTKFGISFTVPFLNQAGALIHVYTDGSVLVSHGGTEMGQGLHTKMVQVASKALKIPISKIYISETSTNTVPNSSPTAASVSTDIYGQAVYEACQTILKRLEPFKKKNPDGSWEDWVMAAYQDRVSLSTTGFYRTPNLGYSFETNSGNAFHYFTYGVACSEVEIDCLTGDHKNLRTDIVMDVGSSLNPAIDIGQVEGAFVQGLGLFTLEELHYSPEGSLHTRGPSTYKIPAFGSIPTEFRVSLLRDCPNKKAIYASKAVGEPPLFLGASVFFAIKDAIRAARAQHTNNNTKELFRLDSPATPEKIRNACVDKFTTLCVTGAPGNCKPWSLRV
Procedure: as §1, §2
Figure 1 Lineweaver-Burk plot of xanthine oxidase inhibition of eupafolin (7) with various concentrations of xanthine. (×) Without eupafolin, (▲) 5 μM of eupafolin, (●) 10 μM of eupafolin, and (○) 20 μM of eupafolin. Data are presented as mean ± SD of three independent experiments.

Structure (SMILES) | ABTS∙+ SC50 [1] [µM] | O2∙− SC50 [2] [µM] | DPPH∙ SC50 [3] [µM] | also measured
COc1cc2oc(-c3ccc(O)c(O)c3)cc(=O)c2c(O)c1OC [Compound 5, cirsiliol] | 58.4 ± 2.7 | 10.7 ± 1.3 | 21.8 ± 1.2 | –
O=c1cc(-c2ccc(O)cc2)oc2cc(O)cc(O)c12 [Apigenin] | – | – | – | DPPH∙ SC50 [4]: >300 µM; ABTS∙+ SC50 [5]: 159.6 ± 4.4 µM; O2∙− SC50 [6]: 81.3 ± 2.0 µM
COc1c(O)cc(O)c2c(=O)cc(-c3ccc(O)c(O)c3)oc12 [Compound 4, onopordin] | 53.7 ± 3.9 | 23.5 ± 0.5 | 24.7 ± 1.2 | Inhibitory mode on tyrosinase (mushroom tyrosinase): mixed-type inhibitor
COc1c(O)cc(O)c2c(=O)cc(-c3ccc(O)cc3)oc12 [Compound 3, 4′-hydroxywogonin] | >300 | 59.9 ± 2.1 | >300 | –
COc1c(O)cc2oc(-c3ccc(O)c(O)c3)cc(=O)c2c1O [Compound 7, eupafolin] | 30.5 ± 1.2 | 8.3 ± 0.4 | 24.1 ± 0.4 | Ki (xanthine oxidase (XO); 7 at 5 μM): 4.48 µM; Vmax (xanthine oxidase) (xanthine oxidase (XO); 7 at 5 μM): 3.6 × 10^−2 ΔO.D./min; Ki (xanthine oxidase (XO); 7 at 10 μM): 5.05 µM; Vmax (xanthine oxidase) (xanthine oxidase (XO); 7 at 10 μM): 3.2 × 10^−2 ΔO.D./min; Ki (xanthine oxidase (XO); 7 at 20 μM): 8.93 µM; Vmax (xanthine oxidase) (xanthine oxidase (XO); 7 at 20 μM): 3.1 × 10^−2 ΔO.D./min; Inhibitory mode on xanthine oxidase (xanthine oxidase (XO); Lineweaver-Burk plot, various concentrations of xanthine): mixed-type inhibitor; Inhibitory mode on tyrosinase (mushroom tyrosinase): competitive inhibitor
O=C1O[C@H]([C@@H](O)CO)C(O)=C1O [Vit. C, L-Ascorbic acid, reference compound] | 49.9 ± 2.1 | 23.5 ± 1.7 | 64.6 ± 4.4 | –
COc1cc(-c2cc(=O)c3c(O)c(O)c(O)cc3o2)ccc1O [Compound 2, nodifloretin] | 62.2 ± 2.5 | 42.3 ± 1.5 | 198.2 ± 3.8 | –
COc1c(O)cc2oc(-c3ccc(O)cc3)cc(=O)c2c1O [Compound 8, hispidulin] | 55.3 ± 3.8 | – | 57.5 ± 2.7 | –
COc1cc(-c2cc(=O)c3c(O)cc(O)c(O)c3o2)ccc1O [Compound 6, 5,7,8,4′-tetrahydroxy-3′-methoxyflavone] | >300 | 34.6 ± 2.4 | >300 | –
